Test results from article PMC8389922, “First-in-Class Cyclic Temporin L Analogue: Design, Synthesis, and Antimicrobial Assessment” (Journal of Medicinal Chemistry, 2021).
Values after ≈ are worked out from the molar mass of the structure shown. Bridge positions count the residues as written; N and C are the ends. Square brackets hold non-standard residues; d marks the D form. Peptide text beside a SMILES is read from it.

Tests used:
ANTS/DPX leakage assay = conditions: peptide 5–50 μM, 10 min
Protocol: The destabilization of membrane vesicles by 12 was explored measuring its effect on the release of encapsulated fluorophores in both LUVs mimicking Gram-positive and Gram-negative membranes. ANTS and DPX fluorophores were encapsulated in LUVs, and ANTS release was measured to evaluate the transient pore formation.
The dry lipid films (Cf = 100 μM) were dissolved with a solution of ANTs (12.5 mM) and DPX (45 mM) in water (2 mL) and then lyophilized overnight. The lipid films with encapsulated ANTS and DPX were hydrated with PBS 1× buffer and treated to obtain LUVs using the extrusion method.[81] Then, nonencapsulated ANTs and DPX were separated from liposomes by gel filtration using a Sephadex G-50 column (1.5 cm × 10 cm) at room temperature. Initially, liposomes contain both ANTs and DPX, and DPX efficiently quenches ANT fluorescence by collisional transfer.[82] When LUVs were treated with peptide concentrations of 5, 10, 15, 20, 30, and 50 μM, we measured the leakage of vesicles by measuring the dequenching of ANTS released into the medium. Changes in the fluorescence of 2 mL of ANTS/DPX LUV samples were monitored setting an excitation fluorescence at 385 nm (slit width, 5 nm) and a fluorescence emission at 512 nm (slit width, 5 nm) for 10 min after the addition of the peptide. […]

[1] = tested on: preformed biofilm of S. aureus ATCC 25923
Protocol: (§1) Biofilm viability was determined as indicated in the Materials and General Procedures section and expressed as a percentage compared to that of untreated samples (100%). Values are the mean of at least three replicates ± SEM. Data are considered to be statistically significant as follows: *p < 0.05; ***p < 0.001; ****p < 0.0001. Biofilm eradication concentration 90, BEC90, was defined as the concentration able to reduce at least 90% of biofilm cells. TEXT PRINTED IN THE PICTURE: 9: S. aureus ATCC 25923: BEC90 = 25 μM; A. baumannii ATCC 19606: BEC90 > 100 μM | 12: S. aureus ATCC 25923: BEC90 = 12.5 μM; A. baumannii ATCC 19606: BEC90 = 25 μM
(§2) Preformed biofilms of S. aureus ATCC 25923 and A. baumannii ATCC 19606 were obtained as previously reported.[77] Microbial cultures were grown in Luria-Bertani broth (LB) at 37 °C to an optical density (OD) of 0.8 (λ = 590 nm) and then diluted in LB to a cell density of 1 × 10^6 colony-forming units (CFUs)/mL. Aliquots of 100 μL were dispensed into the wells of a 96-well plate, which was incubated for 20 h at 37 °C to allow biofilm formation. The medium containing planktonic cells was then aspirated from the wells and washed twice with 150 μL of phosphate-buffered saline (PBS) to remove any nonadherent cells. […] After treatment, each well was rinsed twice with PBS, as previously described. Then, 150 μL of MTT solution (0.5 mg/mL) were added to each well to evaluate biofilm cell viability. The plates were incubated at 37 °C for 4 h in the dark, and the reaction was stopped by adding sodium dodecyl sulfate (SDS) (at a final concentration of 5% v/v). The absorbance of each well was recorded at 570 nm using a microplate reader (Infinite M200; Tecan, Salzburg, Austria), and the percentage of biofilm cells viability was calculated with respect to the untreated samples (100%).

[2] = tested on: preformed biofilm of A. baumannii ATCC 19606; conditions: ATCC 19606, 20 h
Protocol: as §1, §2

[3] = tested on: S. aureus ATCC 43300, a methicillin-resistant strain (MRSA); type: cell-based, Staphylococcus aureus
Protocol: Thus, 12 was further tested against S. aureus ATCC 43300, a methicillin-resistant strain (MRSA), and compared with the linear precursor 9. […] No growth was observed after 24 h. Peptide 9 was bactericidal as well, by killing MRSA within 10 min, but at a higher concentration (25 μM).
The bacterial strains used in the antimicrobial assays were the Gram-negative E. coli ATCC 25922, P. aeruginosa ATCC 27853, A. baumannii ATCC 19606, the Gram-positive S. aureus ATCC 25923, S. epidermidis ATCC 12228, and B. megaterium Bm11. Methicillin-resistant S. aureus (MRSA) ATCC 43300 was obtained from Culture Collection Center of School of Basic Medical Sciences of Lanzhou University (China).
The determination of MICs was conducted as previously reported.[61] Aliquots of 50 μL of bacterial culture appropriately diluted were added to each well of a 96-well plate to reach a final cell density of 1 × 10^6 CFU/mL and a final peptide concentration ranging from 100 to 0.78 μM (final volume 100 μL).

Question: Which results are given for `CC[C@H](C)[C@H](NC(=O)[C@H](CCCNC(=N)N)NC(=O)[C@@H]1CCC(=O)NCCCC[C@H](NC(=O)[C@H](Cc2ccccc2)NC(=O)[C@H](Cc2c[nH]c3ccccc23)NC(=O)[C@@H]2CCCN2C(=O)[C@@H](NC(=O)[C@@H](N)Cc2ccccc2)C(C)C)C(=O)N[C@@H](CCCCN)C(=O)N[C@@H](Cc2ccccc2)C(=O)N[C@H](CC(C)C)C(=O)N1)C(=O)N[C@@H](CC(C)C)C(N)=O` [compound 12] (H-FVPWFKKF[dL]ERIL-NH2; lactam 6-10)?
Answer: leakage of LUVs (ANTS release) (ANTS/DPX leakage assay; LUVs mimicking Gram-negative membranes): significant leakage ability; leakage of LUVs (ANTS release) (ANTS/DPX leakage assay; LUVs mimicking Gram-positive membranes): low leakage effect; reduction of viable S. aureus biofilm cells ([1]; 2 h treatment, from 100 to 12.5 μM, with respect to untreated samples): more than 90%; Biofilm Eradication Concentration 90 (BEC90) S. aureus ATCC 25923 ([1]; preformed 20 h biofilm, 2 h treatment in PBS at 37 °C, MTT, concentration reducing at least 90% of biofilm cells): 12.5 µM; Biofilm Eradication Concentration 90 (BEC90) A. baumannii ATCC 19606 [2]: 25 µM; MIC S. aureus ATCC 43300 (MRSA) [3]: 12.5 µM (≈ 21.3 µg/mL)
